# In patent publication US7932242B2, “Substituted phenoxy-and phenylthio-derivatives for treating proliferative disorders” (Temple University - Of The Commonwealth System of Higher …, priority 2004, dated 2011):
# Structures can show the parent of a compound that is named as a salt. Where two headings read alike, the source gives them in different places.
# Columns and labels:
# Format in all cases: cell-based
# [1] = test system: DU145; assay: Tumor cell growth inhibition, Trypan blue exclusion, DU145; details: Homo sapiens, cell viability after 96 hours vs vehicle (DMSO)
# Description: (§1) The effect of Compounds of Formula I on tumor cells of prostate, colon, lung, pancreatic, brain, renal, gastrointestinal, epidermal, lymphocytic, ovary and breast origin was examined by utilizing a variety of cancer cell lines (listed in Table 6). Cells were plated at density levels of 1.0×10^5 cells per well in six-well plates. Cell cultures were maintained at 37° C. in a humidified atmosphere of 5% CO2.
# (§2) In addition, DU-145 cells were treated with three additional compounds of the invention: (E)-4-(3-(5-((2,4,6-trimethoxystyrylsulfonyl)methyl)-2-methoxyphenoxy)propyl)morpholine; (E)-5-((2,4,6-trimethoxystyrylsulfonyl)methyl)-2-methoxyphenyl 2-(dimethylamino)acetate; and (E)-5-((2,4,6-trimethoxystyrylsulfonyl)methyl)-2-methoxyphenyl 4-methylbenzenesulfonate, the structures of which are shown in Table 7.
# (§3) Values are reported as the GI50, i.e., the concentration (μM) required for 50% growth inhibition as compared to vehicle (DMSO) treated cells. The notations “ER+” and “ER−” designate breast cancer lines that are responsive and non-responsive to estrogen, respectively. The notations “AR+” and “AR−” designate prostate cancer lines that are responsive and non-responsive to androgens, respectively. […] For cell lines designated by “*”, the dose response curve for the compound (E)-5-((2,4,6-trimethoxystyrylsulfonyl)methyl)-2-methoxyphenol (Example 1) is set forth in FIG. 1.
# [2] = test system: COLO-320; assay: Tumor cell growth inhibition, Trypan blue exclusion, COLO-320; details: Homo sapiens; COLO-320, Colo-Rectal; cell viability after 96 hours vs vehicle (DMSO)
# Description: as §1
# (§4) Cells of 36 different cell lines were treated with (E)-5-((2,4,6-trimethoxystyrylsulfonyl)methyl)-2-methoxyphenol (Example 1) or (E)-5-((2,4,6-trimethoxystyrylsulfonyl)methyl)-2-methoxy-phenyl dihydrogen phosphate disodium salt (Example 5) at doses ranging from 2 nM to 10 nM concentration, and cell viability was determined after 96 hours by the Trypan blue exclusion method. In addition, DU-145 cells were treated with three additional compounds of the invention: (E)-4-(3-(5-((2,4,6-trimethoxystyrylsulfonyl)methyl)-2-methoxyphenoxy)propyl)morpholine; (E)-5-((2,4,6-trimethoxystyrylsulfonyl)methyl)-2-methoxyphenyl 2-(dimethylamino)acetate; and (E)-5-((2,4,6-trimethoxystyrylsulfonyl)methyl)-2-methoxyphenyl 4-methylbenzenesulfonate, the structures of which are shown in Table 7.
# (§5) Values are reported as the GI50, i.e., the concentration (μM) required for 50% growth inhibition as compared to vehicle (DMSO) treated cells. […]
# [3] = test system: BT20; assay: Tumor cell growth inhibition, Trypan blue exclusion, BT20; details: Homo sapiens, BT-20; BT20, Breast (Er−); cell viability after 96 hours vs vehicle (DMSO)
# Description: as §1, §2, §3
# [4] = test system: AGS; assay: Tumor cell growth inhibition, Trypan blue exclusion, AGS; details: Homo sapiens, Gastric, cell viability after 96 hours vs vehicle (DMSO)
# Description: as §1, §4, §5
# [5] = test system: CEM; assay: Tumor cell growth inhibition, Trypan blue exclusion, CEM; details: Homo sapiens, CCRF-CEM, Leukemic, cell viability after 96 hours vs vehicle (DMSO)
# Description: as §1, §4, §5
# [6] = test system: Sk-OV-3; assay: Tumor cell growth inhibition, Trypan blue exclusion, Sk-OV-3; details: Homo sapiens; Sk-OV-3, Ovarian; cell viability after 96 hours vs vehicle (DMSO)
# Description: as §1, §4, §5
# [7] = test system: HCT-15; assay: Tumor cell growth inhibition, Trypan blue exclusion, HCT-15; details: Homo sapiens; HCT-15, Colo-Rectal; cell viability after 96 hours vs vehicle (DMSO)
# Description: as §1, §4, §5
# [8] = test system: U87; assay: Tumor cell growth inhibition, Trypan blue exclusion, U87; details: Homo sapiens, U-87 MG; U87, Glioblastoma; cell viability after 96 hours vs vehicle (DMSO)
# Description: as §1, §4, §5
# [9] = test system: CEM; assay: Tumor cell growth inhibition, Trypan blue exclusion, Cem (second listing); details: Homo sapiens, Leukemic (second listing, parent of Cem/C2), cell viability after 96 hours vs vehicle (DMSO)
# Description: as §1, §4, §5
# [10] = test system: RF1; assay: Tumor cell growth inhibition, Trypan blue exclusion, RF1; details: RF1, Gastric; cell viability after 96 hours vs vehicle (DMSO)
# Description: as §1, §4, §5
# [11] = test system: Namalwa; assay: Tumor cell growth inhibition, Trypan blue exclusion, Namalwa; details: Burkitt's Lymphoma (B-Cell), cell viability after 96 hours vs vehicle (DMSO)
# Description: as §1, §4, §5
# [12] = test system: DLD-1; assay: Tumor cell growth inhibition, Trypan blue exclusion, DLD-1; details: Homo sapiens; DLD-1, Colo-Rectal; cell viability after 96 hours vs vehicle (DMSO)
# Description: as §1, §4, §5
# [13] = test system: Raji; assay: Tumor cell growth inhibition, Trypan blue exclusion, Raji; details: Homo sapiens, Burkitt's Lymphoma (B-Cell), cell viability after 96 hours vs vehicle (DMSO)
# Description: as §1, §4, §5
# [14] = test system: K562; assay: Tumor cell growth inhibition, Trypan blue exclusion, K562; details: Homo sapiens; K562, Cml; cell viability after 96 hours vs vehicle (DMSO)
# Description: as §1, §4, §5
# [15] = test system: MIA-PACA2; assay: Tumor cell growth inhibition, Trypan blue exclusion, MIA-PACA2; details: Homo sapiens, MIA PaCa-2; MIA-PACA2, Pancreatic; cell viability after 96 hours vs vehicle (DMSO)
# Description: as §1, §4, §5
# [16] = test system: Mes-Sa; assay: Tumor cell growth inhibition, Trypan blue exclusion, Mes-Sa; details: Homo sapiens, Sarcoma, cell viability after 96 hours vs vehicle (DMSO)
# Description: as §1, §4, §5
# [17] = test system: A549; assay: Tumor cell growth inhibition, Trypan blue exclusion, A549; details: Homo sapiens; A549, Nsclc; cell viability after 96 hours vs vehicle (DMSO)
# Description: as §1, §4, §5
# [18] = test system: T47D; assay: Tumor cell growth inhibition, Trypan blue exclusion, T47D; details: Homo sapiens, Breast (Er+), cell viability after 96 hours vs vehicle (DMSO)
# Description: as §1, §4, §5
# [19] = test system: N417; assay: Tumor cell growth inhibition, Trypan blue exclusion, N417; details: N417, Sclc; cell viability after 96 hours vs vehicle (DMSO)
# Description: as §1, §4, §5
# [20] = test system: PC-3; assay: Tumor cell growth inhibition, Trypan blue exclusion, PC-3; details: Homo sapiens; PC-3, Prostate; cell viability after 96 hours vs vehicle (DMSO)
# Description: as §1, §4, §5
# [21] = test system: H187; assay: Tumor cell growth inhibition, Trypan blue exclusion, H187; details: Homo sapiens, NCI-H187; H187, Sclc; cell viability after 96 hours vs vehicle (DMSO)
# Description: as §1, §4, §5
# [22] = test system: MCF-7; assay: Tumor cell growth inhibition, Trypan blue exclusion, MCF-7; details: Homo sapiens, MCF7; MCF-7, Breast (Er+); cell viability after 96 hours vs vehicle (DMSO)
# Description: as §1, §4, §5
# [23] = test system: 2008; assay: Tumor cell growth inhibition, Trypan blue exclusion, 2008; details: 2008, Ovarian; cell viability after 96 hours vs vehicle (DMSO)
# Description: as §1, §4, §5
# [24] = test system: RF48; assay: Tumor cell growth inhibition, Trypan blue exclusion, RF48; details: RF48, Gastric; cell viability after 96 hours vs vehicle (DMSO)
# Description: as §1, §4, §5
# [25] = test system: LNCAP; assay: Tumor cell growth inhibition, Trypan blue exclusion, LNCAP; details: Homo sapiens, Prostate (Ar+), cell viability after 96 hours vs vehicle (DMSO)
# Description: as §1, §4, §5
# [26] = test system: Daudi; assay: Tumor cell growth inhibition, Trypan blue exclusion, Daudi; details: Homo sapiens, Burkitt's Lymphoma (B-Cell), cell viability after 96 hours vs vehicle (DMSO)
# Description: as §1, §4, §5
# [27] = test system: SK-MEL-28; assay: Tumor cell growth inhibition, Trypan blue exclusion, SK-MEL-28; details: Homo sapiens; SK-MEL-28, Melanoma; cell viability after 96 hours vs vehicle (DMSO)
# Description: as §1, §4, §5
# [28] = test system: CAKI-2; assay: Tumor cell growth inhibition, Trypan blue exclusion, CAKI-2; details: Homo sapiens; CAKI-2, Renal; cell viability after 96 hours vs vehicle (DMSO)
# Description: as §1, §4, §5
# [29] = test system: Mes-Sa/Dx5; assay: Tumor cell growth inhibition, Trypan blue exclusion, Mes-Sa/Dx5; details: Homo sapiens; Mes-Sa/Dx5, Resistant Sarcoma; cell viability after 96 hours vs vehicle (DMSO)
# Description: as §1, §4, §5
# [30] = test system: SW480; assay: Tumor cell growth inhibition, Trypan blue exclusion, SW480; details: Homo sapiens; SW480, Colo-Rectal; cell viability after 96 hours vs vehicle (DMSO)
# Description: as §1, §4, §5
# [31] = test system: H157; assay: Tumor cell growth inhibition, Trypan blue exclusion, H157; details: Homo sapiens, NCI-H157; H157, Nsclc; cell viability after 96 hours vs vehicle (DMSO)
# Description: as §1, §4, §5
# [32] = test system: HCT-116; assay: Tumor cell growth inhibition, Trypan blue exclusion, HCT-116; details: Homo sapiens; HCT-116, Colo-Rectal; cell viability after 96 hours vs vehicle (DMSO)
# Description: as §1, §4, §5
# [33] = test system: 2008/17/4; assay: Tumor cell growth inhibition, Trypan blue exclusion, 2008/17/4; details: 2008/17/4, Resistant Ovarian; cell viability after 96 hours vs vehicle (DMSO)
# Description: as §1, §4, §5
# [34] = test system: MOLT-4; assay: Tumor cell growth inhibition, Trypan blue exclusion, MOLT-4; details: Homo sapiens; MOLT-4, T-Lymphoblastic: All; cell viability after 96 hours vs vehicle (DMSO)
# Description: as §1, §4, §5
# [35] = test system: Cem/C2; assay: Tumor cell growth inhibition, Trypan blue exclusion, Cem/C2; details: Homo sapiens; Cem/C2, Resistant Leukemic; cell viability after 96 hours vs vehicle (DMSO)
# Description: as §1, §4, §5
# [36] = test system: OV-CAR-3; assay: Tumor cell growth inhibition, Trypan blue exclusion, OV-CAR-3; details: Homo sapiens, OVCAR-3; OV-CAR-3, Ovarian; cell viability after 96 hours vs vehicle (DMSO)
# Description: as §1, §4, §5
# [37] = DU-145 cells, Table 7, read-out: DU-145 GI50
# [38] = DU-145, DU145, Prostate (Ar−), read-out: GI50
compound,measurement,setting,value
"COc1cc(OC)c(/C=C/S(=O)(=O)Cc2ccc(OC)c(OCCCN3CCOCC3)c2)c(OC)c1 [(E)-4-(3-(5-((2,4,6-trimethoxystyrylsulfonyl)methyl)-2-methoxyphenoxy)propyl)morpholine]",GI50,[1]; [37],> 10000 nM
"COc1cc(OC)c(/C=C/S(=O)(=O)Cc2ccc(OC)c(OC(=O)CN(C)C)c2)c(OC)c1 [(E)-5-((2,4,6-trimethoxystyrylsulfonyl)methyl)-2-methoxyphenyl 2-(dimethylamino)acetate]",GI50,[1]; [37],4 to 10 nM
"COc1cc(OC)c(/C=C/S(=O)(=O)Cc2ccc(OC)c(OS(=O)(=O)c3ccc(C)cc3)c2)c(OC)c1 [(E)-5-((2,4,6-trimethoxystyrylsulfonyl)methyl)-2-methoxyphenyl 4-methylbenzenesulfonate]",GI50,[1]; [37],> 1000 nM
"COc1cc(OC)c(/C=C/S(=O)(=O)Cc2ccc(OC)c(O)c2)c(OC)c1 [Example 1, (E)-5-((2,4,6-trimethoxystyrylsulfonyl)methyl)-2-methoxyphenol]",GI50,[2],3 nM
same,GI50,[3],80 nM
same,GI50,[4],5 nM
same,GI50,[5],4 nM
same,GI50,[6],4 nM
same,GI50,[7],7 nM
same,GI50,[8],7 nM
same,GI50,[9],4 nM
same,GI50,[10],3 nM
same,GI50,[11],3 nM
same,GI50,[1]; [38],5 nM
same,GI50,[12],7 nM
same,GI50,[13],1 nM
same,GI50,[14],4 nM
same,GI50,[15],3 nM
same,GI50,[16],5 nM
same,GI50,[17],10 nM
same,GI50,[18],10 nM
same,GI50,[19],3 nM
same,GI50,[20],5 nM
same,GI50,[21],3 nM
same,GI50,[22],10 nM
same,GI50,[23],5 nM
same,GI50,[24],1 nM
same,GI50,[25],10 nM
same,GI50,[26],3 nM
same,GI50,[27],7 nM
same,GI50,[28],6 nM
same,GI50,[29],5 nM
same,GI50,[30],5 nM
same,GI50,[31],7 nM
same,GI50,[32],6 nM
same,GI50,[33],6 nM
same,GI50,[34],3 nM
same,GI50,[35],3 nM
same,GI50,[36],30 nM
"COc1cc(OC)c(/C=C/S(=O)(=O)Cc2ccc(OC)c(OP(=O)(O)O)c2)c(OC)c1 [Example 5, (E)-5-((2,4,6-trimethoxystyrylsulfonyl)methyl)-2-methoxyphenyl dihydrogen phosphate, disodium salt]",GI50,[3],8 nM
same,GI50,[4],9 nM
same,GI50,[7],12 nM
same,GI50,[8],9 nM
same,GI50,[1]; [38],5 nM
same,GI50,[12],12 nM
same,GI50,[15],4 nM
same,GI50,[17],20 nM
same,GI50,[19],4 nM
same,GI50,[27],12 nM
same,GI50,[31],12 nM
